What all share (experiment): Eurofins kinase selectivity profile against 380 other human recombinant kinases (Table S2)
What all share (type): biochemical

For assay [1], the target named is T1, 380 human recombinant protein kinases (Homo sapiens, UniProt Q6SA08).
T1 construct: purchased Eurofins (Celle Lévescault)
T1 sequence (Q6SA08 1-328): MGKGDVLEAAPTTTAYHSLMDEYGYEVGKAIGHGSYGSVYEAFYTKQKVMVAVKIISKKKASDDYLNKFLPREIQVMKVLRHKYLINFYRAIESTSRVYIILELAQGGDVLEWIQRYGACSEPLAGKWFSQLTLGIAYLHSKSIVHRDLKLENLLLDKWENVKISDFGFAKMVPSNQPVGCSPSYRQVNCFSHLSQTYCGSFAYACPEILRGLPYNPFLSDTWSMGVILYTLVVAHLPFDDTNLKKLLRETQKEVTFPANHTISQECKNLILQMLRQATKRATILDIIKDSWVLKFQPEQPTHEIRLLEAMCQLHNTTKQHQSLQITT
To be noted: TSSK4(h), read-out: Inhibition rate (%). Put shortly: (§1)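 Profiling against 380 human recombinant kinases carried out by Eurofins at various compound concentrations.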

The target of assay [2] is T2, 380 human recombinant protein kinases (Homo sapiens, UniProt Q99683).
T2 construct: purchased Eurofins (Celle Lévescault)
T2 sequence (Q99683 1-1374): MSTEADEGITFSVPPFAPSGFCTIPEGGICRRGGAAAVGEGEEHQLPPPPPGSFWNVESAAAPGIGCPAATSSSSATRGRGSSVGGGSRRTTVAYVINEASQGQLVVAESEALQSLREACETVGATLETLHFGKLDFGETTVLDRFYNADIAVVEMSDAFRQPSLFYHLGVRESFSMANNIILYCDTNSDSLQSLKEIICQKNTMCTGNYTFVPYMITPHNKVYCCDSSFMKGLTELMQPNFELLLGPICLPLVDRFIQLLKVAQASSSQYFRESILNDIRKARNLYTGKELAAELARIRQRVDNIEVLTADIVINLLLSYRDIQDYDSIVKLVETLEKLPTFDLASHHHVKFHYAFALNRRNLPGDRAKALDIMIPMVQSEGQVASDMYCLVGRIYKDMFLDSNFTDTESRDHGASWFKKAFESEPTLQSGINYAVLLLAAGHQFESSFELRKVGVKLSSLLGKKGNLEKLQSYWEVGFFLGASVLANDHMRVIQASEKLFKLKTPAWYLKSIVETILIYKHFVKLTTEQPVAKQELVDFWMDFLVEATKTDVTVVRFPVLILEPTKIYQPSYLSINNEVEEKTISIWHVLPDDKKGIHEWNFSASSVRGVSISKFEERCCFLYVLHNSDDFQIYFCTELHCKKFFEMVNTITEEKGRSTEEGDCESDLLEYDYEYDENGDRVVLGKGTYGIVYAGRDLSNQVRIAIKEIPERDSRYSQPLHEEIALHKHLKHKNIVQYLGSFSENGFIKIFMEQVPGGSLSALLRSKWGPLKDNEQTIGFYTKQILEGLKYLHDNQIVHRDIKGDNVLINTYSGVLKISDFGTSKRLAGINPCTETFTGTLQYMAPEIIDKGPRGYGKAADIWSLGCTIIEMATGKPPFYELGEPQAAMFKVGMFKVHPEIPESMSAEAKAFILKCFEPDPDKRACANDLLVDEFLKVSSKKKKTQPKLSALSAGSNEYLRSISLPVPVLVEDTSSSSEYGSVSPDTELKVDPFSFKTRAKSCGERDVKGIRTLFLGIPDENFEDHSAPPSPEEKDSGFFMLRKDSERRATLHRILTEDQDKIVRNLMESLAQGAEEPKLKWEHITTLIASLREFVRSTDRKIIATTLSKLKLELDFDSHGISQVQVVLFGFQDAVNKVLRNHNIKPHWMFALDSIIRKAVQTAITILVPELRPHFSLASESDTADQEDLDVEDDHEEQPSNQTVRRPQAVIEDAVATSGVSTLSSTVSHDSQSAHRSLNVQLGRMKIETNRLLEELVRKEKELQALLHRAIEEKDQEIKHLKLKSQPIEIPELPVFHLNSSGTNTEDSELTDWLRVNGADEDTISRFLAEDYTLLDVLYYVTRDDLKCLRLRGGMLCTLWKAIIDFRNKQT
To be noted: ASK1(h), read-out: Inhibition rate. Put shortly:
as §1

The target of assay [3] is T3, 380 human recombinant protein kinases (Homo sapiens, UniProt P04629).
T3 construct: purchased Eurofins (Celle Lévescault)
T3 sequence (P04629 33-796): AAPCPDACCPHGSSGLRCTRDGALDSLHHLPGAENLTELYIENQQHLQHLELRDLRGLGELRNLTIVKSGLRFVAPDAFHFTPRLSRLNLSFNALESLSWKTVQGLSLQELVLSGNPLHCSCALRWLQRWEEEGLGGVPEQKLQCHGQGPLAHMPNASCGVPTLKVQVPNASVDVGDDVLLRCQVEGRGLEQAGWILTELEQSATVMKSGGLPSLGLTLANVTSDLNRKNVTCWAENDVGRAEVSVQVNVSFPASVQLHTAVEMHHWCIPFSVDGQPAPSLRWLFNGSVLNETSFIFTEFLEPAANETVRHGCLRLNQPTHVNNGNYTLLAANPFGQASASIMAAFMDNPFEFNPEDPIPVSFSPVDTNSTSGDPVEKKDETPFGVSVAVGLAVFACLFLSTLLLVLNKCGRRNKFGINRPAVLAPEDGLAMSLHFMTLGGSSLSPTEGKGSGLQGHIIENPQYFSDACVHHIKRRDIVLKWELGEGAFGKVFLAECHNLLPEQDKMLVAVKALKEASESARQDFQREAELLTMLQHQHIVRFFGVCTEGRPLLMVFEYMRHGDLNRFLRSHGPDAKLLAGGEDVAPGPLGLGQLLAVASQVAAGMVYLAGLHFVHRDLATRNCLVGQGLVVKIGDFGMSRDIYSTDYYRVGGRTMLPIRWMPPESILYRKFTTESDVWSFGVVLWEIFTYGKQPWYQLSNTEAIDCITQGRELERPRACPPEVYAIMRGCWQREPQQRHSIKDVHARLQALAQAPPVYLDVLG
To be noted: TrkA(h), read-out: Inhibition rate (%). Put shortly: as §1

Assay [4] concerns the target T4, 380 human recombinant protein kinases (Homo sapiens, UniProt P24941).
T4 construct: purchased Eurofins (Celle Lévescault)
To be noted: read-out: Inhibition rate; for inhibition at 0.01 µM: 10 nM; for inhibition at 0.1 µM: 100 nM; for inhibition at 1 µM: 1000 nM. In a few lines: as §1

For assay [5], the target named is T5, 380 human recombinant protein kinases (Homo sapiens, UniProt Q15303).
T5 construct: purchased Eurofins (Celle Lévescault)
T5 sequence (Q15303 26-1308): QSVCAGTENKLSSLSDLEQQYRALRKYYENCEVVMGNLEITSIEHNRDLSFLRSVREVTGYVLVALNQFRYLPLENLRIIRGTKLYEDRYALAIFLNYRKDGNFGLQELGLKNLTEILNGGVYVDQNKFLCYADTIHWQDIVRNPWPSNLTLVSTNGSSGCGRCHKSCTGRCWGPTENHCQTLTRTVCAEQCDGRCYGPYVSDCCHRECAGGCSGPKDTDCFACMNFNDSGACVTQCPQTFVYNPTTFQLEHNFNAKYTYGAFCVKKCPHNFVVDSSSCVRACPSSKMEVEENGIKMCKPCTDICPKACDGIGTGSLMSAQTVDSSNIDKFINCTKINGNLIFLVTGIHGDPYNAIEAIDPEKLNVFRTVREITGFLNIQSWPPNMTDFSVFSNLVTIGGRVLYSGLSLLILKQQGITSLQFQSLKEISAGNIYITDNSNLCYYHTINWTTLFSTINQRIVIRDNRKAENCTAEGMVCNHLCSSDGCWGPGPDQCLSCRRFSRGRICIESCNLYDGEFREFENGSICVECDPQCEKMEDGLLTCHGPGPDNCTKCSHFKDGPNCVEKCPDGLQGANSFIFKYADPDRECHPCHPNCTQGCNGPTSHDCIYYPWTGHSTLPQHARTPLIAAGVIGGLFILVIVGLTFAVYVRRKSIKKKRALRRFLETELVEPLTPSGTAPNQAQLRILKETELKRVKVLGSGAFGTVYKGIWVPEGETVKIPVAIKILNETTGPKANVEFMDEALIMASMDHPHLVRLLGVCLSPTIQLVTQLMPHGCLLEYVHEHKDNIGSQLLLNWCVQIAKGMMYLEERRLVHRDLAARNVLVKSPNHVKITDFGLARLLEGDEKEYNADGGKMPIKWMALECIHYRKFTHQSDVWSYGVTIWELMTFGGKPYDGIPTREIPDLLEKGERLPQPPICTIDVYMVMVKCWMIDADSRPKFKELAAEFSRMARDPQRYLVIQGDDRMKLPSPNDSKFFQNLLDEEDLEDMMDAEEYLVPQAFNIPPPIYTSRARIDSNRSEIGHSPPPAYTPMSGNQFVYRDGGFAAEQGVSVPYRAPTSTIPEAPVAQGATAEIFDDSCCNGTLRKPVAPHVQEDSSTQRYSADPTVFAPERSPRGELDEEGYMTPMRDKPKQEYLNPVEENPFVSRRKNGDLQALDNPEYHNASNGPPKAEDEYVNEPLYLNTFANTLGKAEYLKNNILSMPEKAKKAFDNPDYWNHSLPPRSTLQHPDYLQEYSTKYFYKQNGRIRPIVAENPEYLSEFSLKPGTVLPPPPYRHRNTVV
To be noted: ErbB4(h), read-out: Inhibition rate. Put shortly: as §1

Where two headings read alike, the source gives them in different places.

By inhibition is commonly meant the drop in the measured response relative to a control, in per cent.

For `C=CC(=O)Nc1cc(-c2cc(-c3cc4c([nH]3)CCNC4=O)ccn2)ccc1OC(F)(F)F` [compound 11], the inhibition at 0.01 µM in assay [1] (10 nM) was 3%; in assay [2] (10 nM), 14%; in assay [3] (10 nM), -6%; in assay [4] (CDK2/cyclinA(h)) it was -5%; in assay [4] (CDK2/cyclinE(h)), -3%; in assay [5] (10 nM), -15%. Moreover, the inhibition at 0.1 µM was 5% in assay [1] (100 nM); 33% in assay [2] (100 nM); -1% in assay [3] (100 nM); 0% in assay [4] (CDK2/cyclinA(h)); 1% in assay [4] (CDK2/cyclinE(h)); -3% in assay [5] (100 nM). The inhibition at 1 µM in assay [1] (1000 nM) was 2%; in assay [2] (1000 nM) it was 83%; in assay [3] (1000 nM) it was 15%; in assay [4] (CDK2/cyclinA(h)), 7%; in assay [4] (CDK2/cyclinE(h)), -1%; in assay [5] (1000 nM) it was 6%.

These data come from article PMC11233931, “Remodeling tumor‐associated macrophage for anti‐cancer effects by rational design of irreversible inhibition of mitogen‐activated protein kinase‐activated protein kinase 2” (MedComm, 2024).
